Patent US20230112418A1, “COMPOUND AND RADIOACTIVE LABELING COMPOUND” (NIHON MEDI-PHYSICS CO., LTD., priority 2020, published 2023)
Where two headings read alike, the source gives them in different places.

What was measured:
[1] = Distribution coefficient (1-octanol/PBS); format: physicochemical; settings: log10, 1-octanol/PBS pH 7.4, n=5
Description: The radioactive labeled compound (740 kBq) of any one of Examples and Comparative Examples was added to a mixed liquid of PBS (3 mL, pH 7.4 (20° C.)) and 1-octanol (3 mL), and the mixture was vortexed for two minutes and then centrifuged at 4000×g for five minutes. Thereafter, 1 mL of the 1-octanol layer and 500 μL of the PBS layer were collected, and the amount of radioactivity of each of the layers was measured with a gamma counter (n=5).
As a calculation formula of a distribution coefficient, “log10 [(amount of radioactivity of 1-octanol layer)/(amount of radioactivity of PBS layer×2)]” was used. Results are illustrated in Table 1 below as mean±standard deviation (mean±SD).
[^111In]In-PtDA (111 kBq) was added to a mixed liquid of PBS (pH 7.4, 3 mL) and 1-octanol (3 mL). The mixture was dispersed by vortexing for two minutes, and then centrifuged at 4000×g for five minutes. 1 mL of the 1-octanol layer and 1 mL of the PBS layer were collected, and the radioactivity of each of the layers was measured with a gamma counter (n=3).
As a calculation formula, “(distribution coefficient)=[…]) [(radioactivity of 1-octanol layer [kBq])/(radioactivity of PBS layer [kBq])]” was used.

[2] = molecular target: T1, CA-IX (Homo sapiens, UniProt Q16790); experiment: Cell binding inhibition assay (acetazolamide as inhibitor, HT-29 cells); settings: read-out: IC50 (nM, mean ± SD)
T1 construct: HT-29 cells (CA-IX highly expressing cells, purchased from Sumitomo Dainippon Pharma Co., Ltd.); host or cells: HT-29 cells
Description: In this evaluation, binding properties of [^111In]IS-DO2A-ALB1 to DO2A-ALB4 and [^111In]DO3A-IS1 with respect to CA-IX were evaluated.
Specifically, HT-29 cells (CA-IX highly expressing cells, purchased from Sumitomo Dainippon Pharma Co., Ltd.) were seeded together with a medium at 4.0×10^5 cells/well in a 12 well plate, and cultured at 37° C. for 24 hours in an atmosphere of 5% carbon dioxide.
Subsequently, the medium was removed, and a medium containing any one of the radioactive labeled compounds of Examples 1 to 4 and Comparative Example 1 (37 kBq/mL) was added to each well in an amount of 1 mL such that the acetazolamide concentration was 50000 to 0.00512 nM as an inhibitor, and the sample was cultured at 37° C. for two hours in an atmosphere of 5% carbon dioxide. In addition, a sample containing the radioactive labeled compound and not containing acetazolamide was also cultured under similar conditions. The experiment was performed with each concentration group at n=6.
Subsequently, the medium was removed, the residue was washed with PBS (1 mL), and cells were lysed with a 1 N sodium hydroxide aqueous solution (200 μL×2) to obtain a cell lysate. Then, the amount of radioactivity in the cell lysate and that in the medium containing the radioactive labeled compound were each measured with a gamma counter (type name: Wallac 2470 Wizard manufactured by PerkinElmer, Massachusetts, U.S.A.). Separately from this, the total protein mass (mg protein) in the cell lysate was quantified by a BCA method. […] Results are illustrated in Table 2 below as mean±standard deviation (mean±SD).
That is, the […] the calculated value of IC50, the higher affinity between the radioactive labeled compound and CA-IX.

[3] = test system: LNCaP tumor transplanted mice; experiment: Suppression of tumor growth by 225Ac-labeled compound; format: in vivo; settings: 20 kBq i.v., FIG. 9
Description: [^225Ac]Ac-PSMA-DA1 (20 kBq) or [^225Ac]Ac-PSMA-DB (20 kBq) obtained by the above-described method was dissolved in a 5% ethanol-containing acetate buffer (158 mM, pH 6.5, 100 μL), and the solution was injected into each of the LNCaP tumor transplanted mice via the tail vein thereof (n=6 or 5). As a control group, 100 μL of 5% ethanol-containing acetate buffer (158 mM, pH 6.5) was injected into each of the LNCaP tumor transplanted mice via the tail vein thereof (n=4).
After the injection of the ^225Ac-labeled compound, a tumor volume and a body weight were measured three times per week. The tumor volumes on the start day of injection of the ^225Ac-labeled compound were 75.3±26.0, 80.6±20.8, and 91.1±15.9 mm^3 in the [^225Ac]Ac-PSMA-DA1 injection group, the [^225Ac]Ac-PSMA-DB injection group, and the 5% ethanol-containing acetate buffer injection group, respectively.

[4] = test system: HT-29 tumor-bearing mice; experiment: In vivo radioactivity distribution assay in HT-29 tumor-bearing mice
Excerpt: Under 2% isoflurane anesthesia, a suspension of HT-29 cells (5×10^6 cells/mouse) expressing CA-IX was subcutaneously injected into the left shoulder of each of 5-week-old male BALB/c nude mice (purchased from SHIMIZU Laboratory Supplies CO., LTD.). The composition of the suspension was a mixture of HT-29 cells/DMEM medium (manufactured by Thermo Fisher Scientific Inc.) and a matrix product (Geltrex (registered trademark) (manufactured by Thermo Fisher) at a volume ratio of 1:1.
Thereafter, the subcutaneously injected mice were raised for 14 days in a raising room that switches day and night every 12 hours with normal food and tap water to obtain HT-29 tumor-bearing mice.
Then, a saline solution (259 kBq, 100 μL, containing 3 mg of ascorbic acid) of each of the radioactive labeled compounds of Examples 1 to 3 or a saline solution (259 kBq, 100 μL, containing 1 mg of ascorbic acid) of the radioactive labeled compound of Comparative Example 1 was injected into each of the mice via the tail vein thereof. The mice (n=5 in each group) were euthanized 1, 4, 8, 24, 48, 96, or 192 hours after the injection, blood, organs, and tumor sites were collected, and the masses thereof were measured. The amount of radioactivity was measured with a gamma counter.
The degree of accumulation of the radioactive labeled compound is indicated as a value (% injected dose/g) obtained by dividing the percentage (% ID) of the amount of radioactivity with respect to the amount of injected radioactivity (injected dose) by the mass of blood or the mass of an organ (g). […] Results are illustrated in FIG. 1.

[5] = test system: MDA-MB-231 tumor-bearing mice; experiment: In vivo radioactivity distribution assay in MDA-MB-231 tumor-bearing mice; settings: 24 hours after injection
Description: In a similar manner to Evaluation 3, a suspension of MDA-MB-231 cells (1×10^7 cells/mouse) having low expression of CA-IX was subcutaneously injected into the left shoulder of each of 5-week-old male BALB/c nude mice to obtain MDA-MB-231 tumor-bearing mice.
Then, a saline solution (40 kBq, 100 μL, containing 3 mg of ascorbic acid) of the radioactive labeled compound of Example 1 was injected into each of the mice via the tail vein thereof. Mice (n=5 in each group) were euthanized 24 hours after the injection, blood, organs, and tumor sites were collected, and the masses thereof were measured. The amount of radioactivity was measured with a gamma counter.
The degree of accumulation of the radioactive labeled compound is indicated as a value (% ID/g) obtained by dividing the percentage (% ID) of the amount of radioactivity with respect to the amount of injected radioactivity (injected dose) by the mass of blood or the mass of an organ (g). […] Results are illustrated in Table 3 as mean±standard deviation (n=5).

[6] = IC50 of inhibitor acetazolamide against binding of the radioactive labeled compound to HT-29 cells, 2 h, larger value = higher affinity of labeled compound for CA-IX

NS(=O)(=O)c1nn2cc(-c3ccc(NC(=O)CN4CCN(CC(=O)O)CCN(CC(=O)N[C@@H](CCCCNC(=O)CCCc5ccc(Br)cc5)C(=O)O)CCN(CC(=O)O)CC4)cc3)nc2s1.[111In+3] [[^111In]IS-DO2A-ALB3]
Distribution coefficient (mean ± SD) [1]: −1.90 ± 0.01 | IC50 [2, 6]: 288 ± 45.7 nM

O=C([O-])CN1CCN(C(CCC(=O)NCCCC[C@H](NC(=O)N[C@@H](CCC(=O)O)C(=O)O)C(=O)O)C(=O)[O-])CCN(CC(=O)[O-])CCN(C(CCC(=O)N[C@@H](CCCCNC(=O)CCCc2ccc(I)cc2)C(=O)O)C(=O)[O-])CC1.[225Ac+3] (stereo partly drawn) [[^225Ac]Ac-PSMA-DA1]
Course of tumor growth (in words) [3]: the tumor hardly grew, and continuous growth suppression was observed up to six weeks after the injection | Decrease in body weight (in words) [3]: transient | Tumor growth compared with control group (in words) [3]: tumor growth was significantly suppressed

NS(=O)(=O)c1nn2cc(-c3ccc(NC(=O)CN4CCN(CC(=O)[O-])CCN(CC(=O)[O-])CCN(CC(=O)[O-])CC4)cc3)nc2s1.[111In+3] [[^111In]DO3A-IS1]
Amount accumulated in the kidney (in words) ([4]; FIG. 1): very large as compared with the results of Examples | Amount accumulated in the tumor expressing CA-IX (in words) ([4]; FIG. 1, HT-29 tumor): poor

NS(=O)(=O)c1nn2cc(-c3ccc(NC(=O)CN4CCN(CC(=O)O)CCN(CC(=O)N[C@@H](CCCCNC(=O)CCCc5ccccc5)C(=O)O)CCN(CC(=O)O)CC4)cc3)nc2s1.[111In+3] [[^111In]IS-DO2A-ALB4, [^111In] indium(III) (S)-2,2′-(−(2-((1-carboxy-5-(4-phenylbutanamide)pentyl)amino)-2-oxoethyl)-10-(2-oxo-2-((4-(2-sulfamoylimidazo[2,1-b][1,3,4]thiadiazol-6-yl)phenyl)amino)ethyl)-1,4,7,10-tetraazacyclododecane-1,7-diyl) diacetic acid]
Distribution coefficient (mean ± SD) [1]: −2.36 ± 0.01 | IC50 [2, 6]: 105 ± 8 nM

O=C([O-])CN1CCN(C(CCC(=O)NCCCC[C@H](NC(=O)N[C@@H](CCC(=O)O)C(=O)O)C(=O)O)C(=O)[O-])CCN(CC(=O)[O-])CCN(C(CCC(=O)Nc2ccccc2)C(=O)[O-])CC1.[225Ac+3] (stereo partly drawn) [[^225Ac]Ac-PSMA-DB]
Decrease in body weight (in words) [3]: temporarily accelerated, but there was no sign of recovery thereafter | Tumor growth compared with control group (in words) [3]: tumor growth was significantly suppressed

NS(=O)(=O)c1nn2cc(-c3ccc(NC(=O)CN4CCN(CC(=O)O)CCN(CC(=O)N[C@@H](CCCCNC(=O)CCCc5ccc(I)cc5)C(=O)O)CCN(CC(=O)O)CC4)cc3)nc2s1.[111In+3] [[^111In]IS-DO2A-ALB1]
Distribution coefficient (mean ± SD) [1]: −1.70 ± 0.01 | Radioactivity accumulated amount: Blood [5]: 5.50 ± 1.17 % ID/g | Radioactivity accumulated amount: Brain [5]: 0.34 ± 0.03 % ID/g | Radioactivity accumulated amount: Heart [5]: 3.12 ± 0.25 % ID/g | Radioactivity accumulated amount: Intestinal [5]: 4.65 ± 0.48 % ID/g | Radioactivity accumulated amount: Kidney [5]: 11.42 ± 0.65 % ID/g | Radioactivity accumulated amount: Liver [5]: 2.64 ± 0.47 % ID/g | Radioactivity accumulated amount: Lung [5]: 7.28 ± 0.85 % ID/g | Radioactivity accumulated amount: Muscle [5]: 1.21 ± 0.22 % ID/g | Radioactivity accumulated amount: Pancreas [5]: 2.27 ± 0.30 % ID/g | Radioactivity accumulated amount: Spleen [5]: 2.04 ± 0.45 % ID/g | Radioactivity accumulated amount: Stomach [5]: 4.44 ± 0.48 % ID | Radioactivity accumulated amount: Tumor (MDA-MB-231) [5]: 5.05 ± 0.59 % ID/g | Tumor/blood radioactivity ratio [5]: 0.94 ± 0.17 | Tumor/kidney radioactivity ratio [5]: 0.44 ± 0.05 | Tumor/muscle radioactivity ratio [5]: 4.22 ± 0.47 | Accumulation in the HT-29 tumor ([4]; value of Evaluation 3 quoted for comparison with Table 3): 10.73 % ID/g | IC50 [2, 6]: 571.4 ± 2.6 nM

Cc1ccc(CCCC(=O)NCCCC[C@H](NC(=O)CN2CCN(CC(=O)O)CCN(CC(=O)Nc3ccc(-c4cn5nc(S(N)(=O)=O)sc5n4)cc3)CCN(CC(=O)O)CC2)C(=O)O)cc1.[111In+3] [[^111In]IS-DO2A-ALB2, [^111In] indium(III) (S)-2,2′-(4-(2-((1-carboxy-5-(4-(4-tolyl)butanamide)pentyl)amino)-2-oxoethyl)-10-(2-oxo-2-((4-(2-sulfamoylimidazo[2,1-b][1,3,4]thiadiazol-6-yl)phenyl)amino)ethyl)-1,4,7,10-tetraazacyclododecane-1,7-diyl) diacetic acid]
Distribution coefficient (mean ± SD) [1]: −2.16 ± 0.04 | IC50 [2, 6]: 165 ± 60.6 nM

NS(=O)(=O)c1nn2cc(-c3ccc(NC(=O)CN4CCN(CC(=O)O)CCN(CC(=O)O)CCN(CC(=O)O)CC4)cc3)nc2s1 [[^111In]DO3A-IS1, metal not drawn]
Distribution coefficient (mean ± SD) [1]: −3.72 ± 0.05 | IC50 [2]: 127 ± 19.6 nM
